pIC50: −log10 of the molar value. Activity calls are given as the source filed them. The rule behind the calls is not given here.
How the values were obtained:
[1] = molecular target: T1, Beta-secretase 1 (Homo sapiens, UniProt P56817); test: Inhibition of human recombinant BACE-1 using acetyl-C(W8044-Eu)-EVNLDAEFK-QSY7 as substrate at 100 uM by TR-FRET assay
[2] = molecular target: T1, Beta-secretase 1; test: Inhibition of human recombinant BACE-1 using acetyl-C(W8044-Eu)-EVNLDAEFK-QSY7 as substrate by TR-FRET assay
[3] = molecular target: T1, Beta-secretase 1; test: Inhibition of BACE1 in HEK293 cells expressing modified BACE cleavage sequence of APP, NFEV and K612V mutation; assay type: cell-based
[4] = molecular target: T1, Beta-secretase 1; test: Inhibition of BACE1 in human SHSY5Y cells expressing APP NFEV and wild-type alpha-cleavage site; assay type: cell-based, SH-SY5Y

T1 sequence (P56817 whole entry): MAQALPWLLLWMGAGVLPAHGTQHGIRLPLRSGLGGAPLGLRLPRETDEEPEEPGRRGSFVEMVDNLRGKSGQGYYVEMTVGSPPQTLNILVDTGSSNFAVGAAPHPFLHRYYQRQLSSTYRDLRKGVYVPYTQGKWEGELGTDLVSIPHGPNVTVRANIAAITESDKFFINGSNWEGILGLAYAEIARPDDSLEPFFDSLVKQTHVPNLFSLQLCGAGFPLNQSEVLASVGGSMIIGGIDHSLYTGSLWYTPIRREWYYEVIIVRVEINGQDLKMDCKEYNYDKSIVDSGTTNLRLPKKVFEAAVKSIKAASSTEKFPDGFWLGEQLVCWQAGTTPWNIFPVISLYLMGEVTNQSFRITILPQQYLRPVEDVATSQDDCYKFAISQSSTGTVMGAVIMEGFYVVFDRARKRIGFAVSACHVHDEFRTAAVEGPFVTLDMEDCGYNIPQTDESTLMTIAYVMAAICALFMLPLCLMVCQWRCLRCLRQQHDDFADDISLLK

pIC50 [2] | pIC50 [3] | pIC50 [4] | SMILES | inhibition [1]
– | – | – | O=C1Nc2c(cccc2N2CCNCC2)C(c2ccccc2)=N[C@H]1c1ccccc1 | inactive
– | – | – | CC(C)(C)OC(=O)N1CCN(c2cccc(C(=O)c3ccccc3)c2NC(=O)[C@@H](NC(=O)OCc2ccccc2)c2ccccc2)CC1 | inactive
5.62 | < 5.59 | < 5.92 | O=C(N[C@H](C(=O)Nc1cc(C(O)CNCc2ccccc2)ccc1C(=O)c1ccccc1)c1ccccc1)OCc1ccccc1 (stereo partly drawn) | –
– | – | – | CC(C)(C)OC(=O)N1CCN(c2cccc3c2NC(=O)[C@H](Cc2ccccc2)N=C3c2ccccc2)CC1 | inactive
5.59 | < 5.59 | < 5.92 | O=C(N[C@@H](C(=O)Nc1cc(C(O)CNCc2ccccc2)ccc1C(=O)c1ccccc1)c1ccccc1)OCc1ccccc1 (stereo partly drawn) | –
5.39 | < 5.59 | < 5.92 | O=C(N[C@H](C(=O)Nc1cc(C(CO)NCc2ccccc2)ccc1C(=O)c1ccccc1)c1ccccc1)OCc1ccccc1 (stereo partly drawn) | –
5.31 | – | – | CC(C)(C)OC(=O)N1CCN(CC(O)c2ccc(C(=O)c3ccccc3)c(NC(=O)[C@H](NC(=O)OCc3ccccc3)c3ccccc3)c2)CC1 (stereo partly drawn) | –
– | – | – | CC(C)(C)OC(=O)N1CCN(CC(O)c2ccc3c(c2)NC(=O)[C@@H](c2ccccc2)N=C3c2ccccc2)CC1 (stereo partly drawn) | inactive
5.38 | – | – | O=C(N[C@@H](C(=O)Nc1cc(C(CO)NCc2ccccc2)ccc1C(=O)c1ccccc1)c1ccccc1)OCc1ccccc1 (stereo partly drawn) | –
– | – | – | CC(C)(C)OC(=O)N1CCN(c2cccc3c2NC(=O)[C@H](CCc2ccccc2)N=C3c2ccccc2)CC1 | inactive
– | – | – | O=C1Nc2cc(C(O)CNCc3ccccc3)ccc2C(c2ccccc2)=N[C@@H]1c1ccccc1 (stereo partly drawn) | inactive

SMILES | pIC50 [2] | pIC50 [3] | pIC50 [4] | inhibition [1]
O=C1Nc2ccccc2C(c2ccccc2)=N[C@H]1C(O)CN1CCNCC1 (stereo partly drawn) | 4.90 | – | – | –
CC(C)(C)OC(=O)N1CCN(c2cccc3c2NC(=O)[C@@H](c2ccccc2)N=C3c2ccccc2)CC1 | 4.37 | – | – | –
O=C1Nc2cc(C(CO)NCc3ccccc3)ccc2C(c2ccccc2)=N[C@@H]1c1ccccc1 (stereo partly drawn) | 4.96 | – | – | –
O=C1Nc2cc(C(CO)NCc3ccccc3)ccc2C(c2ccccc2)=N[C@H]1c1ccccc1 (stereo partly drawn) | – | < 4.66 | < 4.96 | –
CC(C)(C)OC(=O)N1CCN(c2cccc3c2NC(=O)[C@H](c2ccccc2)N=C3c2ccccc2)CC1 | 4.46 | – | – | –
